Data taken from patent US20090081197A1 (Palatin Technologies, Inc., priority 2007, published 2009).
Where two headings read alike, the source gives them in different places.

Tests used:
MC1-R [1] = target: T1, MC1-R (Mus musculus, UniProt Q01727); test: Competitive inhibition assay using [I^125]-NDP-α-MSH, B-16 mouse melanoma cell membranes; type: binding; conditions: for inhibition at 1 µM: 1 μM test compound, read-out: Inhibition at 1 μM (NDP-α-MSH) In Normal System, MC1-R; for Ki: read-out: Ki (nM) (NDP-α-MSH) In Normal System, MC1-R
T1 construct: B-16 mouse melanoma cells (containing MC1-R); endogenous in cells
Procedure, shortened: (§1)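 Tracer was 0.4 nM for MC3-R and MC5-R, 0.2 nM for MC4-R and 0.1 nM for MC1-R. Bound radioactivity was gamma-counted after filtration; values are triplicate means, with results below 0% reported as 0%.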

MC1-R [2] = target: T1, MC1-R; test: cAMP functional activity assay in B-16 mouse melanoma cells; type: cell-based; conditions: 1 μM concentration where stated
Protocol: (§2) General method for EC50 determination in functional activity assay. […] Data analysis and EC50 values were determined using nonlinear regression analysis with Prism Graph-Pad software.
(§3) Functional status. The agonist/antagonist status with respect to MC1-R, MC-3R, MC4-R and MC5-R of certain compounds of the invention was determined. Antagonistic activity was determined by measuring the inhibition of α-MSH-induced or NDP-α-MSH-induced cAMP levels following exposure to graded doses of compounds as in the preceding descriptions.

[3] = Penile erection induction in male rats; type: in vivo; conditions: rat
Procedure, shortened: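 Male Sprague-Dawley rats (200-250 g), groups of 4-8, dosed IV or ICV at various doses and observed individually for penile erections. Only statistically relevant increases over vehicle-control mean PEs count as induction; IV responses below 1.0 PEs/rat treated as equivocal, some retested ICV.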

MC3-R [4] = target: T2, MC3-R (Homo sapiens, UniProt P41968); test: Competitive inhibition assay using [I^125]-NDP-α-MSH, hMC3-R membranes; type: binding; parameters: expressed in transfected cells; conditions: for inhibition at 1 µM: 1 μM test compound, read-out: Inhibition at 1 μM (NDP-α-MSH) In Normal System, MC3-R
Procedure, shortened: as §1

MC5-R [5] = target: T3, MC5-R (Homo sapiens, UniProt P33032); test: Competitive inhibition assay using [I^125]-NDP-α-MSH, hMC5-R membranes; type: binding; parameters: expressed in transfected cells; conditions: for inhibition at 1 µM: 1 μM test compound, read-out: Inhibition at 1 μM (NDP-α-MSH) In Normal System, MC5-R
Procedure, shortened: as §1

MC4-R [6] = target: T4, MC4-R (Homo sapiens, UniProt P32245); test: cAMP functional activity assay in HEK-293 cells, normal system; type: cell-based; parameters: expressed in transfected cells; host or cells: HEK-293; conditions: for intrinsic activity at MC4-R in a normal system: normal receptor density system, NDP-α-MSH = 1.0; for functional status at MC4-R in cAMP assay: normal system, 1 μM concentration where stated
MC5-R [7] = target: T3, MC5-R; test: cAMP functional activity assay in HEK-293 cells; type: cell-based; parameters: expressed in transfected cells; host or cells: HEK-293; conditions: 1 μM concentration where stated
Protocol: as §2, §3

MC4-R [8] = target: T4, MC4-R; test: Competitive inhibition assay using [I^125]-NDP-α-MSH, hMC4-R membranes; type: binding; parameters: host or cells: TREx-293 (HEK-293 stably expressing Tet repressor); conditions: for inhibition at 1 µM: 1 μM test compound, read-out: Inhibition at 1 μM (NDP-α-MSH) In Normal System, MC4-R
Procedure, shortened: as §1

MC4-R [9] = target: T4, MC4-R; test: cAMP agonist stimulation, low receptor density system (0.1 ng/mL doxycycline); conditions: 0.1 ng/mL doxycycline, low receptor density hMC4-R system; NDP-α-MSH maximal cAMP = 1.0
MC4-R [10] = target: T4, MC4-R; test: cAMP agonist stimulation, high receptor density system (10 ng/mL doxycycline); conditions: for Efficacy/Intrinsic Activity: NDP-α-MSH maximal cAMP = 1.0
MC3-R [11] = target: T2, MC3-R; test: cAMP functional activity assay in HEK-293 cells; type: cell-based; parameters: expressed in transfected cells; host or cells: HEK-293; conditions: 1 μM concentration where stated
Protocol: as §2, §3

[12] = 10 ng/mL doxycycline, high receptor density hMC4-R system

T2 sequence (P41968 whole entry): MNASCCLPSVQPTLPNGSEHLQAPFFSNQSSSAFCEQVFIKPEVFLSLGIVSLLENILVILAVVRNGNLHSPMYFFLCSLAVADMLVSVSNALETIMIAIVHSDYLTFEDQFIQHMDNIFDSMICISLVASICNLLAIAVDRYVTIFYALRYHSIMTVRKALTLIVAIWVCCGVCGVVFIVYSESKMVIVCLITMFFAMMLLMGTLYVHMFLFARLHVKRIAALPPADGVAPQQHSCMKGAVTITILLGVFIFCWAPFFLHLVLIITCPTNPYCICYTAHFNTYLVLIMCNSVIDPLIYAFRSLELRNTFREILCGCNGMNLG
T1 sequence (Q01727 whole entry): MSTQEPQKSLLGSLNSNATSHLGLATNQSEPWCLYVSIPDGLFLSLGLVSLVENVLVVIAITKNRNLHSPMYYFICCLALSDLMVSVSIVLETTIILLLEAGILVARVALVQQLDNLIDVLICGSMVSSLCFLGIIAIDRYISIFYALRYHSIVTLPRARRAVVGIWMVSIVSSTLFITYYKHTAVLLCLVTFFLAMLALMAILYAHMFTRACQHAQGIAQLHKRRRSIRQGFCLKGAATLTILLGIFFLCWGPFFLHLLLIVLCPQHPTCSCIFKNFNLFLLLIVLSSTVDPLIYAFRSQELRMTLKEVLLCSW
T4 sequence (P32245 whole entry): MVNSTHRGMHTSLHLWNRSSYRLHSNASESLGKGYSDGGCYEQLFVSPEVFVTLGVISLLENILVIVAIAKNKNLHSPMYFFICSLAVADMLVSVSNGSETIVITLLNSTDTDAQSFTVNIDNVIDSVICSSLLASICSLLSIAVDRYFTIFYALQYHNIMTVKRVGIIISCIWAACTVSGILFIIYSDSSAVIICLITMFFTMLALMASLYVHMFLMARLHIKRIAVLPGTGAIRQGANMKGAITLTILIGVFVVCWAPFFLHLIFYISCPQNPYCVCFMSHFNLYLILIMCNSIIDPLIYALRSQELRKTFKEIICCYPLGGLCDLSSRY
T3 sequence (P33032 whole entry): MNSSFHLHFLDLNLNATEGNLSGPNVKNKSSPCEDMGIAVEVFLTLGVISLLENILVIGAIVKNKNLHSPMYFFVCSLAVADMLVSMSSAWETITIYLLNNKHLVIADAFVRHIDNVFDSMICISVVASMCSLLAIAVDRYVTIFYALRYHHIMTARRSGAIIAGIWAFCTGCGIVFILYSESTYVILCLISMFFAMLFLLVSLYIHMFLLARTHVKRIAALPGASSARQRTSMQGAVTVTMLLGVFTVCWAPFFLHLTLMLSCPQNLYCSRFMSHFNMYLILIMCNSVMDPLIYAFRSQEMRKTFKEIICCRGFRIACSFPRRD

Compound | inhibition at 1 µM (MC1-R [1]) [%] | Ki (MC1-R [1]) [nM] | functional status at MC1-R in cAMP assay (MC1-R [2]) | Penile Erection IV ([3]; IV) | inhibition at 1 µM (MC3-R [4]) [%] | inhibition at 1 µM (MC5-R [5]) [%] | intrinsic activity at MC4-R in a normal system (MC4-R [6]) | functional status at MC4-R in cAMP assay (MC4-R [6]) | functional status at MC5-R in cAMP assay (MC5-R [7]) | inhibition at 1 µM (MC4-R [8]) [%] | Efficacy/Intrinsic Activity (MC4-R [9]) | EC50 (MC4-R [10]) [µM] | Efficacy/Intrinsic Activity (MC4-R [10]; [12]) | penile erection response ([3]; IV, 0.3 to 30 μg/kg) | functional status at MC3-R in cAMP assay (MC3-R [11]) | Penile Erection ICV ([3]; ICV) | other results
N=C(N)NCCC[C@H]1C(=O)N(CCc2c[nH]c3ccccc23)CCN1C(=O)[C@H](N)Cc1ccc(Cl)cc1Cl [Example 2, N-(3-{(S)-1-[(R)-2-Amino-3-(2,4-dichloro-phenyl)-propionyl]-4-[2-(1H-indol-3-yl)-ethyl]-3-oxo-piperazin-2-yl}-propyl)-guanidine] | 7 | 1410 | partial agonist (intrinsic activity between 0.1 (10%) and 0.7 (70%) is classified as a partial agonist) | No | 57 | 35 | 0.3 | partial agonist (intrinsic activity between 0.1 (10%) and 0.7 (70%) is classified as a partial agonist) | partial agonist (intrinsic activity between 0.1 (10%) and 0.7 (70%) is classified as a partial agonist) | 96 | None | 0.057 | 0.56 |  |  |  | penile erection response ([3]; IV, 0.3 to 3 μg/kg): did not cause penile erection behavior
Cc1ccc(CCN2C[C@H](CCCNC(=N)N)N(C(=O)[C@H](N)Cc3ccc4ccccc4c3)C[C@H]2C)cc1 [Example 5, N-{3-[1-(2(R)-Amino-3-naphthalen-2-yl-propionyl)-5(R)-methyl-4-(2-p-tolyl-ethyl)-piperazin-2(S)-yl]-propyl}-guanidine] | 32 | 135 | partial agonist (intrinsic activity between 0.1 (10%) and 0.7 (70%) is classified as a partial agonist) | No | 61 | 65 | 0.6 | partial agonist (intrinsic activity between 0.1 (10%) and 0.7 (70%) is classified as a partial agonist) | partial agonist (intrinsic activity between 0.1 (10%) and 0.7 (70%) is classified as a partial agonist) | 95 | None | 0.117 | 0.46 | no penile erection response | no intrinsic activity (intrinsic activity below 0.1 (10%) is classified as inactive or having no intrinsic activity) |  | 
C[C@@H]1CN(C(=O)[C@H](N)Cc2ccc3ccccc3c2)[C@@H](CCCNC(=N)N)CN1C(=O)Cc1c[nH]c2ccccc12 [Example 6, N-{3-[1-(2(R)-Amino-3-naphthalen-2-yl-propionyl)-4-(2-1H-indol-3-yl-acetyl)-5(R)-methyl-piperazin-2(S)-yl]-propyl}-guanidine] | 20 | 315 | no intrinsic activity (intrinsic activity below 0.1 (10%) is classified as inactive or having no intrinsic activity) | No | 35 | 6 | 0.2 | partial agonist (intrinsic activity between 0.1 (10%) and 0.7 (70%) is classified as a partial agonist) | partial agonist (intrinsic activity between 0.1 (10%) and 0.7 (70%) is classified as a partial agonist) | 90 | None | 0.039 | 0.43 | no penile erection response | no intrinsic activity (intrinsic activity below 0.1 (10%) is classified as inactive or having no intrinsic activity) |  | 
C[C@@H]1CN(C(=O)[C@H](N)Cc2ccc3ccccc3c2)[C@@H](CCCNC(=N)N)CN1C(=O)CCCc1c[nH]c2ccccc12 [Example 7] | 0 | 1200 | no intrinsic activity (intrinsic activity below 0.1 (10%) is classified as inactive or having no intrinsic activity) |  | 32 | 62 | 0.4 | partial agonist (intrinsic activity between 0.1 (10%) and 0.7 (70%) is classified as a partial agonist) | no intrinsic activity (intrinsic activity below 0.1 (10%) is classified as inactive or having no intrinsic activity) | 88 | None | 0.072 | 0.38 |  | no intrinsic activity (intrinsic activity below 0.1 (10%) is classified as inactive or having no intrinsic activity) | No | penile erection response ([3]; ICV, 0.01 to 10 nmol): no penile erection response
Cc1[nH]c2ccccc2c1CCN1C[C@H](CCCNC(=N)N)N(C(=O)[C@H](N)Cc2ccc3ccccc3c2)C[C@H]1C [Example 8, N-(3-{1-(2(R)-Amino-3-naphthalen-2-yl-propionyl)-5(R)-methyl-4-[2-(2-methyl-1H-indol-3-yl)-ethyl]-piperazin-2(S)-yl}-propyl)-guanidine] | 73 | 148 | partial agonist (intrinsic activity between 0.1 (10%) and 0.7 (70%) is classified as a partial agonist) |  | 57 | 76 | 0.9 | agonist (intrinsic activity of 0.7 (70%) or higher is classified as an agonist) | agonist (intrinsic activity of 0.7 (70%) or higher is classified as an agonist) | 95 | None |  | None |  | no intrinsic activity (intrinsic activity below 0.1 (10%) is classified as inactive or having no intrinsic activity) | No | penile erection response ([3]; ICV, 0.01 to 10 nM): no penile erection response
N-{3-[1-[2(R)-Amino-3-(4-chloro-2-fluoro-phenyl)-propionyl]-5(S)-methyl-4-(2-naphthalen-2-yl-ethyl)-piperazin-2(S)-yl]-propyl}-guanidine [Example 3] |  | 109 | partial agonist (intrinsic activity between 0.1 (10%) and 0.7 (70%) is classified as a partial agonist) |  |  |  |  | no intrinsic activity (intrinsic activity below 0.1 (10%) is classified as inactive or having no intrinsic activity) | no intrinsic activity (intrinsic activity below 0.1 (10%) is classified as inactive or having no intrinsic activity) |  | None |  | 0.26 |  |  |  | Ki (MC3-R [4]; read-out: Ki (nM) (NDP-α-MSH) In Normal System, MC3-R): 186 nM; Ki (MC5-R [5]; read-out: Ki (nM) (NDP-α-MSH) In Normal System, MC5-R): 204 nM; Ki (MC4-R [8]; read-out: Ki (nM) (NDP-α-MSH) In Normal System, MC4-R): 6 nM; EC50 (MC4-R [10]; [12]): 0.061 µM
